Experimental data as given in PubChem BioAssay AID2060498 (Molecular Pharmacology Branch, DTP, NCI, 2025).
Several values for one entry are separate records, joined by “and”; a condition that tells them apart may be missing. Equal values may be shown once.

Tested on: 171881-019-R-J1-PDC tumor spheroids, viability
Experiment: Anticancer human tumor 171881-019-R-J1-PDC patient-derived invasive breast carcinoma cell line growth inhibition [GQUAD]
Details: spheroids with HUVEC and MSC; for viability, T/C: stronger effect = lower value
Summary of the method: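 Viability of tumor cells grown as complex spheroids with endothelial and stromal cells, exposed to drug combinations. Top concentration at or near clinical Cmax (else 10 microM), diluted in half-log increments.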

[1] = curve of first compound, second compound 0.0316 µM
[2] = curve of first compound, second compound 0.1 µM
[3] = curve of first compound, second compound 0.316 µM
[4] = curve of first compound, second compound 1 µM
[5] = curve of first compound, second compound 3.16 µM
[6] = curve of first compound, second compound 10 µM
[7] = second compound 0.0316 µM, first compound 0.0316 µM
[8] = second compound 0.0316 µM, first compound 0.316 µM
[9] = second compound 0.1 µM, first compound 0.0316 µM
[10] = second compound 0.1 µM, first compound 0.316 µM
[11] = second compound 0.316 µM, first compound 0.0316 µM
[12] = second compound 0.316 µM, first compound 0.316 µM
[13] = second compound 1 µM, first compound 0.0316 µM
[14] = second compound 1 µM, first compound 0.316 µM
[15] = second compound 3.16 µM, first compound 0.0316 µM
[16] = second compound 3.16 µM, first compound 0.316 µM
[17] = second compound 10 µM, first compound 0.0316 µM
[18] = second compound 10 µM, first compound 0.316 µM
[19] = second compound 0.0316 µM, first compound 0.1 µM
[20] = second compound 0.0316 µM, first compound 1 µM
[21] = second compound 0.0316 µM, first compound 3.16 µM
[22] = second compound 0.0316 µM, first compound 10 µM
[23] = second compound 0.1 µM, first compound 0.1 µM
[24] = second compound 0.1 µM, first compound 1 µM
[25] = second compound 0.1 µM, first compound 3.16 µM
[26] = second compound 0.1 µM, first compound 10 µM
[27] = second compound 0.316 µM, first compound 0.1 µM
[28] = second compound 0.316 µM, first compound 1 µM
[29] = second compound 0.316 µM, first compound 3.16 µM
[30] = second compound 0.316 µM, first compound 10 µM
[31] = second compound 1 µM, first compound 0.1 µM
[32] = second compound 1 µM, first compound 1 µM
[33] = second compound 1 µM, first compound 3.16 µM
[34] = second compound 1 µM, first compound 10 µM
[35] = second compound 3.16 µM, first compound 0.1 µM
[36] = second compound 3.16 µM, first compound 1 µM
[37] = second compound 3.16 µM, first compound 3.16 µM
[38] = second compound 3.16 µM, first compound 10 µM
[39] = second compound 10 µM, first compound 0.1 µM
[40] = second compound 10 µM, first compound 1 µM
[41] = second compound 10 µM, first compound 3.16 µM
[42] = second compound 10 µM, first compound 10 µM
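Throughout, for viability, T/C: 100% = DMSO vehicle control viability.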

CCc1c2c(nc3ccc(O)cc13)-c1cc3c(c(=O)n1C2)COC(=O)[C@]3(O)CC + CN(C)c1ccc(Nc2c3ccc(NC(=O)CCN4CCCC4)cc3nc3cc(NC(=O)CCN4CCCC4)ccc23)cc1
IC50 [1]: 8 nM | IC50 [2]: 7.74 nM | IC50 [3]: 4.32 nM | IC50 [4]: < 0.999 nM | IC50 [5]: < 0.999 nM | IC50 [6]: < 0.999 nM | viability, T/C (second compound 0.0316 µM, first compound 0.000999 µM): 91.8% | viability, T/C (second compound 0.0316 µM, first compound 0.00316 µM): 56.5% | viability, T/C (second compound 0.0316 µM, first compound 0.00999 µM): 49.2% | viability, T/C [7]: 42.3% | viability, T/C (second compound 0.0316 µM, first compound 0.0999 µM): 33.4% | viability, T/C [8]: 24.8% | viability, T/C (second compound 0.1 µM, first compound 0.000999 µM): 94.9% | viability, T/C (second compound 0.1 µM, first compound 0.00316 µM): 55.6% | viability, T/C (second compound 0.1 µM, first compound 0.00999 µM): 50.2% | viability, T/C [9]: 43.8% | viability, T/C (second compound 0.1 µM, first compound 0.0999 µM): 32.4% | viability, T/C [10]: 27.4% | viability, T/C (second compound 0.316 µM, first compound 0.000999 µM): 77.1% | viability, T/C (second compound 0.316 µM, first compound 0.00316 µM): 51.1% | viability, T/C (second compound 0.316 µM, first compound 0.00999 µM): 42.2% | viability, T/C [11]: 30.9% | viability, T/C (second compound 0.316 µM, first compound 0.0999 µM): 30.3% | viability, T/C [12]: 22% | viability, T/C (second compound 1 µM, first compound 0.000999 µM): 16.3% | viability, T/C (second compound 1 µM, first compound 0.00316 µM): 12.6% | viability, T/C (second compound 1 µM, first compound 0.00999 µM): 17% | viability, T/C [13]: 11% | viability, T/C (second compound 1 µM, first compound 0.0999 µM): 7.94% | viability, T/C [14]: 6.83% | viability, T/C (second compound 3.16 µM, first compound 0.000999 µM): 2.04% | viability, T/C (second compound 3.16 µM, first compound 0.00316 µM): 1.12% | viability, T/C (second compound 3.16 µM, first compound 0.00999 µM): 2.08% | viability, T/C [15]: 1.29% | viability, T/C (second compound 3.16 µM, first compound 0.0999 µM): 1.67% | viability, T/C [16]: 1.67% | viability, T/C (second compound 10 µM, first compound 0.000999 µM): 0.56% | viability, T/C (second compound 10 µM, first compound 0.00316 µM): 0.37% | viability, T/C (second compound 10 µM, first compound 0.00999 µM): 0.38% | viability, T/C [17]: 0.48% | viability, T/C (second compound 10 µM, first compound 0.0999 µM): 0.49% | viability, T/C [18]: 0.16%

O=C(c1cc(Cc2n[nH]c(=O)c3ccccc23)ccc1F)N1CCN(C(=O)C2CC2)CC1
viability, T/C (compound 0.0316 µM): 96.1% and 101% and 87.5% | viability, T/C (compound 0.1 µM): 94.4% and 97.5% and 96.8% | viability, T/C (compound 0.316 µM): 94.5% and 105% and 103% | viability, T/C (compound 1 µM): 103% and 101% and 96.6% | viability, T/C (compound 3.16 µM): 100% and 97.8% and 95.5% | viability, T/C (compound 10 µM): 89.8% and 88.3% and 89.4% | IC50 (curve of compound): > 10000 nM

CN(C)c1ccc(Nc2c3ccc(NC(=O)CCN4CCCC4)cc3nc3cc(NC(=O)CCN4CCCC4)ccc23)cc1
viability, T/C (compound 0.0316 µM): 97.6% [middle of 12 runs] | viability, T/C (compound 0.1 µM): 99.5% [middle of 12 runs] | viability, T/C (compound 1 µM): 20% [middle of 12 runs] | viability, T/C (compound 3.16 µM): 1.98% [middle of 11 runs] | viability, T/C (compound 10 µM): 0.43% [middle of 12 runs] | IC50 (compound alone, run of 02/26/2024): 548 nM [middle of 12 runs]

CC(C)n1c(=O)n(C)c2cnc3cc(F)c(-c4ccc(OCCCN5CCCCC5)nc4)cc3c21 + Cc1cnc(CNC(=O)c2c(=O)c3ccc(N4CCCN(C)CC4)nc3n3c2sc2ccccc23)cn1
IC50 [1]: 1020 nM | IC50 [2]: 1720 nM | IC50 [3]: 1860 nM | IC50 [4]: 3420 nM | IC50 [5]: 3710 nM | IC50 [6]: 3200 nM | viability, T/C [7]: 63.7% | viability, T/C [19]: 56.6% | viability, T/C [8]: 59.6% | viability, T/C [20]: 48.2% | viability, T/C [21]: 39.1% | viability, T/C [22]: 16.1% | viability, T/C [9]: 62.4% | viability, T/C [23]: 62.2% | viability, T/C [10]: 58.6% | viability, T/C [24]: 55.9% | viability, T/C [25]: 43.8% | viability, T/C [26]: 17.4% | viability, T/C [11]: 66.6% | viability, T/C [27]: 65% | viability, T/C [12]: 60.5% | viability, T/C [28]: 58.9% | viability, T/C [29]: 43.3% | viability, T/C [30]: 20.8% | viability, T/C [13]: 66.7% | viability, T/C [31]: 63.5% | viability, T/C [14]: 66.5% | viability, T/C [32]: 57.7% | viability, T/C [33]: 53.2% | viability, T/C [34]: 25.4% | viability, T/C [15]: 62.1% | viability, T/C [35]: 63% | viability, T/C [16]: 66.5% | viability, T/C [36]: 60.7% | viability, T/C [37]: 53.1% | viability, T/C [38]: 28.2% | viability, T/C [17]: 61.8% | viability, T/C [39]: 64.2% | viability, T/C [18]: 61.7% | viability, T/C [40]: 58.7% | viability, T/C [41]: 50.4% | viability, T/C [42]: 25.3%

Cc1cccc(N(C)C(=O)C2C(O)CCN2c2nc(C)cc(C(F)(F)F)c2C#N)c1 (configuration not stated)
viability, T/C (compound 0.0316 µM): 90.3% and 105% and 91.7% | viability, T/C (compound 0.1 µM): 101% and 88.7% and 99.2% | viability, T/C (compound 0.316 µM): 87.6% and 91.7% and 98.8% | viability, T/C (compound 1 µM): 104% and 95.4% and 100% | viability, T/C (compound 3.16 µM): 98.1% and 85.9% and 89.5% | viability, T/C (compound 10 µM): 84.6% and 77.5% and 71.8% | IC50 (curve of compound): > 10000 nM

C#Cc1c(F)ccc2cc(O)cc(-c3ncc4c(N5CC6CCC(C5)N6)nc(OCC56CCCN5CC(F)C6)nc4c3F)c12 (configuration not stated)
viability, T/C (compound 0.0316 µM): 91.1% and 86.6% and 83.5% | viability, T/C (compound 0.1 µM): 72.5% and 68.7% and 74.1% | viability, T/C (compound 0.316 µM): 55.5% and 61.2% and 55.2% | viability, T/C (compound 1 µM): 41.4% and 38% and 36.8% | viability, T/C (compound 3.16 µM): 29.1% and 29.3% and 26.5% | viability, T/C (compound 10 µM): 24.5% and 6.82% and 10.6% | IC50 (curve of compound): 478 nM and 552 nM and 475 nM

CC1COCCN1c1cc(C2(S(C)(=N)=O)CC2)nc(-c2ccnc3[nH]ccc23)n1 (configuration not stated) + Cc1cnc(CNC(=O)c2c(=O)c3ccc(N4CCCN(C)CC4)nc3n3c2sc2ccccc23)cn1
IC50 [1]: 1040 nM | IC50 [2]: 1050 nM | IC50 [3]: 755 nM | IC50 [4]: 1120 nM | IC50 [5]: 1040 nM | IC50 [6]: 1110 nM | viability, T/C [7]: 93.8% | viability, T/C [19]: 82.8% | viability, T/C [8]: 90.7% | viability, T/C [20]: 50.8% | viability, T/C [21]: 15.5% | viability, T/C [22]: 9.59% | viability, T/C [9]: 87.5% | viability, T/C [23]: 87.8% | viability, T/C [10]: 74.1% | viability, T/C [24]: 53.9% | viability, T/C [25]: 18.7% | viability, T/C [26]: 10.7% | viability, T/C [11]: 74.9% | viability, T/C [27]: 80.5% | viability, T/C [12]: 63.5% | viability, T/C [28]: 45.7% | viability, T/C [29]: 21.7% | viability, T/C [30]: 11.2% | viability, T/C [13]: 67.6% | viability, T/C [31]: 61.5% | viability, T/C [14]: 68.7% | viability, T/C [32]: 50.3% | viability, T/C [33]: 28.7% | viability, T/C [34]: 13.6% | viability, T/C [15]: 61.9% | viability, T/C [35]: 56.9% | viability, T/C [16]: 58.7% | viability, T/C [36]: 50.3% | viability, T/C [37]: 35.1% | viability, T/C [38]: 17.1% | viability, T/C [17]: 57.5% | viability, T/C [39]: 64.1% | viability, T/C [18]: 57.2% | viability, T/C [40]: 51.9% | viability, T/C [41]: 33% | viability, T/C [42]: 16.2%

O=C(NO)c1cnc(N2CCN(S(=O)(=O)c3ccc4ccccc4c3)CC2)nc1
viability, T/C (compound 0.0316 µM): 77.1% and 89.5% and 81.1% | viability, T/C (compound 0.1 µM): 74% and 76.3% and 64.2% | viability, T/C (compound 0.316 µM): 44.3% and 39.6% and 41.4% | viability, T/C (compound 1 µM): 0.86% and 0.61% and 2.4% | viability, T/C (compound 3.16 µM): 0.14% and 0.11% and 0.19% | viability, T/C (compound 10 µM): 0.33% and 0.21% and 0.18% | IC50 (curve of compound): 255 nM and 224 nM and 201 nM

COc1cccc2c1C(=O)c1c(O)c3c(c(O)c1C2=O)CC(O)(C(=O)CO)CC3OC1CC(N)C(O)C(C)O1 (configuration not stated)
viability, T/C (compound 0.0316 µM): 90.7% and 94.5% and 84.5% | viability, T/C (compound 0.1 µM): 52% and 64.5% and 52.4% | viability, T/C (compound 0.316 µM): 39.5% and 50.2% and 35.5% | viability, T/C (compound 1 µM): 13.5% and 20% and 15% | viability, T/C (compound 3.16 µM): 0.2% and 0.32% and 0.18% | viability, T/C (compound 10 µM): 0.4% and 0.19% and 0.39% | IC50 (curve of compound): 138 nM and 241 nM and 128 nM
